Series [1] deals with EGFR. As to the kind of experiment: EGFR activation by EGF in SW48 cells, western blot. The conditions noted are these: serum-free 24 h, 1 h pre-treatment, EGF 100 ng/mL 5 min, western blot (Fig. S1). In kind it is cell-based. How it is done: To test the ability of lipopolyplexes to deliver pDNA and inhibitor we used LIM1215 colon cancer cells. […] As a control, to check the response of the colorectal cancer cell lines to this class of TKI, we prepared an analogue of 1, with the disulfide-linked peptide replaced with an –OMe group. TKI analogue MeO-[PEG6-IPQA]
Optimization of EGFR inhibitor delivery to target cells
Figure S1. Effect of MeO-[PEG6-IPQA] (8) on EGFR activation by EGF in SW48 cells.
Cells were seeded in 6-well plate, 48 h later media was changed for media without serum. 24 h later cells were pre-treated with MeO-[PEG6-IPQA] (8) at indicated concentrations for 1 h followed by treatment with EGF (100 ng/mL) for 5 min. Cells were lysed and subjected to western blot analysis for activation/phosphorylation of EGFR and downstream signalling […]
(1 picture or pasted object on this page, not shown here)
On the technique in general: In western blotting, separated proteins are transferred to a membrane and probed.

In series [2] the target is T1, EGFR (Homo sapiens, UniProt P00533).
T1 construct: endogenous in cells; host or cells: LIM1215 colon cancer cells
As to the kind of experiment: FRET-FLIM analysis of EGF-induced EGFR activity with Picchu-X biosensor in cells. The series is classed as cell-based. On the set-up: inhibition of EGF-induced EGFR activity (FRET-FLIM), difference between the groups: dose or concentration left out as unconfirmed. An excerpt:
We then prepared variant lipopolyplex formulations, based on CLA1 and including the EGFR inhibitor K16Cys-S-S-[PEG6-IPQA] 1 (Table 1). […] For efficient perfusion through the leaky endothelial cells of the tumor, lipopolyplexes must be <150 nm in diameter. […] We also carried out in vitro studies to check that the disulfide linker between K16Cys and PEG-IPQA was labile under pseudo-intracellular conditions (GSH/GSSG, HEPES, pH 7.2).[66] […] Next, we assessed the effectiveness of K16Cys-S-S-[PEG6-IPQA] 1 as an inhibitor of EGFR activity as a free therapeutic or within lipopolyplexes by utilizing FRET-FLIM and validating our results by western blot (WB) techniques. […]
A10 μM solution of the non-radiolabelled F1LA1 K16Cys-S-S-[PEG6-IPQA] lipopolyplex was applied to cells at 60% confluence in 96-well-plates. […] Time-domain fluorescence lifetime images were acquired via time correlated single photon counting (TCSPC) at a resolution of 256 by 256 pixels, with 256 time bins and 100 frames accumulated over 300 seconds, via excitation and emission filters suitable for the detection of GFP fluorescence (Excitation filter: Semrock FF01-470/22 nm; Beam Splitter: Edmund 48NT-392 30R/70 T; Emission filter: Semrock FF01-510/20 nm). […]

For series [3], the system named is LIM1215 xenografts. As to the kind of experiment: In vivo radioactive organ biodistribution in LIM1215 xenograft mice. On the set-up: species or system CD1 nu/nu mice. The method, then:
Fig. 3 In vivo radioactive organ biodistribution data presented in % Injected Dose per gram (%ID g^−1) for MeO-[PEG6-[^125I]-IPQA] 8 (black columns) and F1LA1 K16Cys-SMal-[PEG3-[^125I]-IPQA] 9 lipopolyplex (grey columns) 3, 6 and 24 h after injection. The tumor %ID g^−1 at 3, 6 and 24 h for both tracers is represented on a separate graph.
All animal studies were approved by the University College London Biological Services Ethical Review Committee and licensed under the UK Home Office regulations and the Guidance for the Operation of Animals (Scientific Procedures) Act 1986 (Home Office, London, United Kingdom). 12 female 6–8 weeks old CD1 nu/nu mice (Charles River Laboratories, UK) were injected subcutaneously in the right flank with 2 × 10^6 LIM1215 cells in 100 μL PBS. Once palpable tumors were measure in three orthogonal directions using the following equation: length × height × width × π/6. Once tumors had reached approximately 70–100 mm^3 mice were randomly divided into 2 groups; group 1 received an intravenous injection of 0.5Mbq MeO-[PEG6-[^125I]-IPQA] 8 (n = 6), group 2 received an intravenous injection of 0.5MBq F1LA1 K16Cys-SMal-[PEG3-[^125I]-IPQA]-lipopolyplex (n = 6). Mice were then culled at 3, 6 and 24 hours (n = 2 per time point) and all organs were taken, weighed and ^125I uptake quantified using a gamma counter (Wizard, PerkinElmer) to obtain % Injected dose per gram (%ID g^−1).

The target of series [4] is T1, EGFR. As to the kind of experiment: Western blot of EGFR phosphorylation, time course of inhibitory effect. In kind it is cell-based. Conditions: for duration of EGFR inhibition: western blot (Fig. 2d). From the text: (§1) We then prepared variant lipopolyplex formulations, based on CLA1 and including the EGFR inhibitor K16Cys-S-S-[PEG6-IPQA] 1 (Table 1). […] For efficient perfusion through the leaky endothelial cells of the tumor, lipopolyplexes must be <150 nm in diameter. […] We also carried out in vitro studies to check that the disulfide linker between K16Cys and PEG-IPQA was labile under pseudo-intracellular conditions (GSH/GSSG, HEPES, pH 7.2).[66] […] Next, we assessed the effectiveness of K16Cys-S-S-[PEG6-IPQA] 1 as an inhibitor of EGFR activity as a free therapeutic or within lipopolyplexes by utilizing FRET-FLIM and validating our results by western blot (WB) techniques. Activation of EGFR in cells treated with EGF (natural ligand for EGFR) was evident by decreasing lifetime of green fluorescent protein (GFP) in Picchu-X biosensor (Fig. 2c) and by appearance of phosphorylated EGFR band in WB image (Fig. 2d). In both cases pre-treatment with MeO-[PEG6-IPQA]
Fig. 2 Effect of different lipopolyplex formulations and drug loading on the expression of EGFR in targeted cells and inhibition of its activity upon stimulation with EGF. LIM1215 cells transfected with different lipopolyplexes without inhibitor (CLA1–4, NAE1–4, NGE1–4) (a) or with increasing amount of inhibitor per particle (F1LA1–3, F2LA1–3) (b) 24 h after seeding.
LIM1215, DiFi, SW48 and DLD1 colon cancer cell lines (independently validated by STR DNA fingerprinting at The Institute of Cancer Research (London, UK), were maintained in RPMI-1640 (Life Technologies Ltd). Antibodies: anti-EGFR (clone D38B1) anti-p-Y1173-EGFR (clone 53A5) were from Cell Signaling Technology Ltd.

The nature of series [5]: Cleavage of the disulfide linker under pseudo-intracellular conditions. In kind it is physicochemical. Conditions: reducing pseudo-intracellular conditions, GSH/GSSG, HEPES, pH 7.2 (Fig. S7).
From the text: as §1

The conditions of series [6]: cited from earlier work. An excerpt:
This approach also allowed us to further investigate the basis for the enhanced circulation and better tumour selectivity afforded by nanoparticle delivery of small molecule therapeutics. […] This phenomenon will need further investigation of potential differences in trafficking of the drug within the cell post-uptake, both in terms of the subcellular compartments involved and kinetics of intracellu ...

As to `C=CC(=O)Nc1cc2c(Nc3cccc(I)c3)ncnc2cc1OCCOCCOCCOCCOCCOCCOC` [Compound 8, MeO-[PEG6-IPQA]], the “inhibition of EGFR activation by EGF” value in series [1] is reported as “potent inhibitor of EGFR activation”. In addition, the “lifetime of GFP in Picchu-X biosensor after EGF” value in series [2] (pre-treatment for 1 h, then EGF (Fig. 2c)) is on record as “remained at baseline levels”. The organ uptake result in series [3] (i.v. 0.5 MBq, 3, 6 and 24 h, 125I gamma counting, %ID g-1 (Fig. 3)) is “high uptake in gallbladder and intestines at 3 and 6 h”. Also, in series [3] (i.v. 0.5 MBq, 125I gamma counting, n = 2 per time point), the clearance route result is “rapidly cleared via the hepatobiliary route”. The “time of highest tumor uptake” value in series [3] (i.v. 0.5 MBq, time points 3, 6 and 24 h, gradual reduction over 24 h) is reported as 3 h. Moreover, the “duration of EGFR inhibition” value in series [4] (free agent) was 24 h. Further, the “level of EGFR phosphorylation” value in series [4] (pre-treatment for 1 h, EGF stimulation, western blot (Fig. 2d, line 8 vs. line 2)) was “significantly lower than in the sample without inhibitor”.

For K16Cys-S-S-[PEG6-IPQA] [Compound 1], the “inhibition of EGF-induced EGFR activity (FRET-FLIM), difference between the groups” value in series [2] (free agent, P = 0.03 (Fig. 2c legend)) is “statistically significant”. For the same compound, the “time to cleavage of disulfide linkage” value in series [5] is not above 5 min. Besides, in series [4] (delivered within lipopolyplexes), the “duration of EGFR inhibition” value is “up to 48 h”. Besides, the “EGFR activity, inhibitor within lipopolyplexes” value in series [4] (delivered within lipopolyplexes, western blot (Fig. 2d, lines 3-7 vs. line 2)) is listed as “equally low levels as the free drug”.

`C=CC(=O)Nc1cc2c(Nc3cccc(I)c3)ncnc2cc1OCCOCCOCCOCCOCCOCCF` [[^18F]F-PEG6-IPQA]: the “selectivity for tumour cells” value in series [6] is on record as “little selectivity for tumour cells”. Further, in series [6] (compared with Mo-IPQA), the in vivo clearance result is recorded as “quicker in vivo clearance”.

(Values after article PMC8601123, “Drug delivery, biodistribution and anti-EGFR activity: theragnostic nanoparticles for simultaneous in vivo delivery of tyrosine kinase inhibitors and kinase activity biosensors” (Nanoscale, 2021).)
